Experimental data taken from patent US8664251B1, “Ryanodine receptor inhibitors for treatment of T-cell mediated disorders” (The Regents of the University of California, priority 2009, dated 2014).

Experiments:
resting human T cells = test: Fura-2 calcium imaging in resting human T cells; assay type: cell-based; conditions: resting T cells preincubated 30 min with 30 μM Da or 500 μM Ry; CPA then Ca^2+ readdition
Experimental: (§1) All studies involving human subjects were performed after approval by UC Davis Institutional Review Board and after all subjects gave written informed consent. Resting CD3^+ human lymphocytes were isolated from the peripheral blood of healthy consented adults using RosetteSep™ human lymphocyte enrichment kit (Stem Cell Tech.) following the manufacturer's instructions. Resting T cells were resuspended at 0.5−1×10^6 cells/ml in […] medium supplemented with 10 mM HEPES, 10% fetal bovine serum, 2% L-glutamine, 2% vitamins solution, 1% RPMI amino acids solution, and 0.01% β-mercaptoethanol and maintained in suspension in 5% CO2 at 37° C. Resting T cells were activated on the day of isolation by incubation with either PHA ([…]) or anti-CD3 antibody coated onto the tissue culture plates and soluble anti-CD28 antibody (5 m/ml; BD Biosciences). Resting T cells were taken for analysis on the day of isolation, whereas activated T cells were tested 4-5 days after activation.
Cell cultures and chemicals were as described in the Example 1. […]
Fluorescence images were acquired from adherent cells using a SenSys CCD camera (Roper Scientific, Tucson, Ariz.) and a 40× oil immersion Zeiss objective on a Zeiss Axiovert 200 inverted microscope (Thornwood, N.Y.). […] Unless otherwise indicated, in each experiment changes in [Ca^2+]i were recorded from 15-20 cells and then averaged.

activated human T cells = test: Fura-2 calcium imaging in activated human T cells; assay type: cell-based; conditions: for [Ca^2+]i elevation evoked by readdition of extracellular Ca^2+ ([Ca^2+]SOCE): activated T cells preincubated 30 min with 500 μM Ry or 30 μM Da, p<0.01, n=7
Experimental: as §1
Cell cultures and chemicals were as described in the Example 1. Before experiment, cells were plated on poly-l-lysine-coated glass-bottom clambers and then loaded with 1 μM fura-2/AM and pluronic F-127 for 5 min in modified Tyrode solution containing (in mM): 130 NaCl, 5.6 KCl, 1 MgCl2, 2 CaCl2, 10 HEPES, 10 D-glucose; pH 7.3. After washing, cells were incubated for additional 30 min at 37° C. […] In nominally Ca^2+-free solution, Ca^2+ was omitted.
Fluorescence images were acquired from adherent cells using a SenSys CCD camera (Roper Scientific, Tucson, Ariz.) and a 40× oil immersion Zeiss objective on a Zeiss Axiovert 200 inverted microscope (Thornwood, N.Y.). Lambda DG-4 filter changer (Sutter Instrument, Novato, Calif.) was used for switching between 340 and 380 nm excitation wavelengths. All experiments were performed at room temperature. Solution exchange was performed via a gravity-driven perfusion system. Solution exchange in the recording chamber was completed within 5 s. […] Unless otherwise indicated, in each experiment changes in [Ca^2+]i were recorded from 15-20 cells and then averaged.

Jurkat T cells [1] = test: CFSE proliferation assay, Jurkat T cells; assay type: cell-based, human; conditions: 400 μM Ry or 30 μM Da, 72 hours
Experimental: (§2) Cell cultures and chemicals were as described in the Example 1. Proliferation assay—Cell division track assay was conducted using carboxyfluorescein succinimidyl ester (CFSE) proliferation kit (Molecular probes). Stock solution of CFSE (4 mM) was prepared in DMSO. Cells were washed, resuspended in PBS containing 4 μM CFSE at density 1×10^6 cells/ml, and incubated at 37° C. for 10 min. Labeling was quenched by adding 5× volume of RPMI 1640 culture media containing 10% FBS. After washing 3 times with RPMI 1640+10% FBS, cells were placed into FBS-free cell culture media to abolish cell division and kept overnight in 5% CO2 at 37° C. After overnight incubation, the CFSE-labeled cells were pellet down and fraction of them (˜50000) were fixed with 1% paraformaldehyde in PBS and analyzed by flow cytometry to establish the CFSE fluorescence profile of undivided cells. […] Fluorescence intensity was measured at 488 nm using FACScan flow cytometer and CellQuest software (Becton Dickinson Bioscience, Mountain View, Calif.). The number of cell divisions was calculated using FlowJo software (Tree Star Inc, Ashland, Oreg.). […]
(§3) Freshly isolated CD3^+ resting human T cells or Jurkat T cells were loaded with CFSE and fraction of them was fixed with 1% paraformaldehyde in PBS and analyzed by flow cytometry to establish the CFSE fluorescence profile of undivided cells (time 0). […]

human T cells = test: CFSE proliferation assay, human T cells activated with anti-CD3/CD28 Ab; assay type: cell-based; conditions: 400 μM Ry or 30 μM Da; anti-CD3/CD28 Ab activation
Experimental: as §2, §3

Jurkat T cells [2] = test: IL-2 production assay (ELISA), PHA-stimulated Jurkat T cells; assay type: cell-based, human; conditions: Ry 400 μM or Da 30 μM applied 30 min prior to PHA, 24 hours, p<0.01, n=6
Experimental: Jurkat T cells were washed 3 timed with PBS and resuspended in FBS-free cell culture media at density 0.8×10^6 cells/ml and seeded into 96 well tissue culture plate (0.4 ml per well) and then stimulated with […] mitogenic lectin phytohaemagglutinin P (PHA). Some cells were pre-incubated for 30 min at 37° C. with, Ry (400 μM), or dantrolene (30 μM) prior to stimulation with PHA. After 24 hours of incubation, cells culture supernatants were collected and contents of IL-2 was determined by ELISA using Quantikine kits (R&D systems, Minneapolis, Minn.) according to manufacturer instructions.

murine T cell [3] = conditions: cited from earlier work
murine T cell [4] = conditions: murine T cells; cited from earlier work
Jurkat T cells [5] = test: Fura-2 calcium imaging in Jurkat T cells; assay type: cell-based, human
Experimental: Cell cultures and chemicals were as described in the Example 1. Before experiment, cells were plated on poly-l-lysine-coated glass-bottom clambers and then loaded with 1 μM fura-2/AM and pluronic F-127 for 5 min in modified Tyrode solution containing (in mM): 130 NaCl, 5.6 KCl, 1 MgCl2, 2 CaCl2, 10 HEPES, 10 D-glucose; pH 7.3. After washing, cells were incubated for additional 30 min at 37° C. Some cells were incubated in Modified Tyrode solution containing 400 μM Ry, 30 μM dantrolene, or vehicles (methanol or, ethanol, or DMSO) alone for 30 min at 37° C. In nominally Ca^2+-free solution, Ca^2+ was omitted.
Fluorescence images were acquired from adherent cells using a SenSys CCD camera (Roper Scientific, Tucson, Ariz.) and a 40× oil immersion Zeiss objective on a Zeiss Axiovert 200 inverted microscope (Thornwood, N.Y.). Lambda DG-4 filter changer (Sutter Instrument, Novato, Calif.) was used for switching between 340 and 380 nm excitation wavelengths. All experiments were performed at room temperature. Solution exchange was performed via a gravity-driven perfusion system. Solution exchange in the recording chamber was completed within 5 s. The vehicles-containing solutions (methanol or DMSO) were applied in place of the drugs in all control experiments. Data acquisition was performed using MetaFluor v7.0 software (Universal Imaging, Downingtown, Pa.). [Ca^2+]i values were estimated from fura-2 calibration as described previously (Grynkiewicz, G., Poenie, M., and Tsien, R. Y. (1985) J Biol Chem 260(6), 3440-3450). Kd was taken as 248 nM (Fanger, C. M., Neben, A. L., and Cahalan, M. D. (2000) J Immunol 164(3), 1153-1160). Unless otherwise indicated, in each experiment changes in [Ca^2+]i were recorded from 15-20 cells and then averaged.

Jurkat T cells [6] = test: Manganese quench of fura-2 fluorescence (divalent cation influx via SOC channels); assay type: cell-based, human; conditions: Jurkat T cells preincubated 30 min with 400 μM Ry; with or without 30 μM CPA; n=5
Source text: Because Mn^2+ readily passes through SOC channels (Missiaen, L., Declerck, I., Droogmans, G., Plessers, L., De Smedt, H., Raeymaekers, L., and Casteels, R. (1990) J Physiol 427, 171-186) and is unlikely to be transported from the cytosol (Chiesi, M., and Inesi, G. (1980) Biochemistry 19(13), 2912-2918; Chiesi, M., and Inesi, G. (1981) Arch Biochem Biophys 208(2), 586-592), the rate of fura-2 quenching in the presence of Mn^2+ was used as a measure of divalent cation influx into the bulk cytoplasm in intact cells. The extracellular solution used in all Mn^2+ quench experiments contained (in mM): 130 NaCl, 5.6 KCl, 1 MgCl2, 0.3 CaCl2, 0.5 MnCl2, 10 HEPES, 10 D-glucose; pH 7.3. Changes in Ca^2+-independent fluorescence due to Mn^2+ quench were determined using method described by Zhou & Neher (Zhou, Z., and Neher, E. (1993) J Physiol 469, 245-273). Briefly, background corrected fura-2 fluorescence excited at 340 nm (F340) was plotted against background corrected fura-2 fluorescence excited at 380 nm (F380) during the initial 10 seconds following application of 30 μM cyclopiazonic acid (CPA). The slope of the F340 versus F380 relationship equals the ‘isocoefficient’ α. The fluorescence value, Fi, which is unaffected by changes in [Ca^2+]i, was determined as: […]. […]

Compound | time courses of changes in [Ca^2+]i (resting human T cells) | [Ca^2+]i elevation evoked by readdition of extracellular Ca^2+ ([Ca^2+]SOCE) (activated human T cells) | Jurkat T cell proliferation (CFSE fluorescence profile) (Jurkat T cells [1]) | normal human activated T cell proliferation (CFSE fluorescence profile) (human T cells) | PHA-induced IL-2 production (Jurkat T cells [2]) | murine T cell proliferation following TCR stimulation (murine T cell [3]) | IL-2 production following TCR stimulation (murine T cell [4]) | Ca^2+ liberation from the ryanodine-sensitive store (activated human T cells; caffeine 20 mM, activated human T cells, normal Tyrode solution) | PHA-induced [Ca^2+]i transients in the absence of extracellular Ca^2+ (Jurkat T cells [5]; Jurkat T cells preincubated with 400 μM Ry) | CPA-induced [Ca^2+]i transients following PHA in the absence of extracellular Ca^2+ (Jurkat T cells [5]; Jurkat T cells preincubated with 400 μM Ry, 30 μM CPA) | reduction of maximal amplitudes of [Ca^2+]i transients during Ca^2+ readdition following TCR stimulation (Jurkat T cells [5]; Jurkat T cells preincubated with 400 μM Ry, PHA then 0.5 mM Ca^2+ readdition) [%] | [Ca^2+]i transients evoked by Ca^2+ readdition ([Ca^2+]SOCE) (Jurkat T cells [5]; Jurkat T cells preincubated with Ry, 2 mM Ca^2+ readdition after CPA, p<0.01, n=6) | store refilling (CPA2/CPA1 ratio) (Jurkat T cells [5]; Jurkat T cells preincubated with Ry, p<0.01, n=6) | Ca^2+ release on extracellular (acute) application (Jurkat T cells [5]; Ry 400 applied in nominally Ca^2+-free extracellular solution, Jurkat T cells, n=5) | divalent cation influx (Mn^2+ quench of fura-2 fluorescence) (Jurkat T cells [6])
O=C1CN(N=Cc2ccc(-c3ccc([N+](=O)[O-])cc3)o2)C(=O)N1 [dantrolene, 1-[[[5-(4-nitrophenyl)-2-furanyl]methylene]amino]-2,4-imidaz olidinedione] | did not affect | reduced | inhibit | inhibit | significantly inhibited | inhibit | inhibit | – | – | – | – | – | – | – | –
Cn1c(=O)c2c(ncn2C)n(C)c1=O [caffeine] | – | – | – | – | – | – | – | produced Ca^2+ liberation | – | – | – | – | – | – | –
N.N.N.N.N.N.N.N.N.N.N.N.N.N.[Cl-].[Cl-].[Cl-].[Cl-].[Cl-].[Cl-].[O-2].[O-2].[Ru+3].[Ru+3].[Ru+4] [ruthenium red] | – | – | – | – | – | inhibit | inhibit | – | – | – | – | – | – | – | –
ryanodine | did not affect | reduced | inhibit | inhibit | significantly inhibited | – | – | – | did not significantly affect | did not significantly affect | 42 | significantly downregulated | facilitated store refilling | does not induce Ca^2+ release | does not induce Ca^2+ release (FIG. 2 D) or affect divalent ction influx
